Test results from patent US11186544B2 (BRISTOL-MYERS SQUIBB COMPANY, priority 2017, dated 2021).

Columns and labels:
[1] = biological target: human FPR2 (Homo sapiens (Human), UniProt P25090); test: FPR2 cyclic adenosine monophosphate (cAMP) assay; assay type: cell-based; settings: CHO cells overexpressing human FPR2; inhibition of forskolin (5 μM) stimulated cAMP; read-out: hFPR2 cAMP2 EC50
Description: FPR2 and FPR1 Cyclic Adenosine Monophosphate (cAMP) Assays. A mixture of forskolin (5 μM final for FPR2 or 10 μM final for FPR1) and IBMX (200 μM final) were added to 384-well Proxiplates (Perkin-Elmer) pre-dotted with test compounds in DMSO (1% final) at final concentrations in the range of 0.020 nM to 100 μM. Chinese Hamster Ovary cells (CHO) overexpressing human FPR1 or human FPR2 receptors were cultured in F-12 (Ham's) medium supplemented with 10% qualified FBS, 250 μg/ml zeocin and 300 μg/ml hygromycin (Life Technologies). Reactions were initiated by adding 2,000 human FPR2 cells per well or 4,000 human FPR1 cells per well in Dulbecco's PBS (with calcium and magnesium) (Life Technologies) supplemented with 0.1% BSA (Perkin-Elmer). The reaction mixtures were incubated for 30 min at room temperature. The level of intracellular cAMP was determined using the HTRF HiRange cAMP assay reagent kit (Cisbio) according to manufacturer's instruction. Solutions of cryptate conjugated anti-cAMP and d2 flurorophore-labelled cAMP were made in a supplied lysis buffer separately. Upon completion of the reaction, the cells were lysed with equal volume of the d2-cAMP solution and anti-cAMP solution. […] The potency and activity of a compound to inhibit cAMP production was then determined by fitting to a 4-parametric logistic equation from a plot of cAMP level versus compound concentrations.

[2] = biological target: human FPR1 (Homo sapiens (Human), UniProt P21462); test: FPR1 cyclic adenosine monophosphate (cAMP) assay; assay type: cell-based; settings: CHO cells overexpressing human FPR1; inhibition of forskolin (10 μM) stimulated cAMP; read-out: hFPR1 cAMP EC50
Description: FPR2 and FPR1 Cyclic Adenosine Monophosphate (cAMP) Assays. A mixture of forskolin (5 μM final for FPR2 or 10 μM final for FPR1) and IBMX (200 μM final) were added to 384-well Proxiplates (Perkin-Elmer) pre-dotted with test compounds in DMSO (1% final) at final concentrations in the range of 0.020 nM to 100 μM. Chinese Hamster Ovary cells (CHO) overexpressing human FPR1 or human FPR2 receptors were cultured in F-12 (Ham's) medium supplemented with 10% qualified FBS, 250 μg/ml zeocin and 300 μg/ml hygromycin (Life Technologies). Reactions were initiated by adding 2,000 human FPR2 cells per well or 4,000 human FPR1 cells per well in Dulbecco's PBS (with calcium and magnesium) (Life Technologies) supplemented with 0.1% BSA (Perkin-Elmer). The reaction mixtures were incubated for 30 min at room temperature. The level of intracellular cAMP was determined using the HTRF HiRange cAMP assay reagent kit (Cisbio) according to manufacturer's instruction. Solutions of cryptate conjugated anti-cAMP and d2 flurorophore-labelled cAMP were made in a supplied lysis buffer separately. Upon completion of the reaction, the cells were lysed with equal volume of the d2-cAMP solution and anti-cAMP solution. After a 1-h room temperature incubation, time-resolved fluorescence intensity was measured using the Envision (Perkin-Elmer) at 400 nm excitation and dual emission at 590 nm and 665 nm. A calibration curve was constructed with an external cAMP standard at concentrations ranging from 1 μM to 0.1 pM by plotting the fluorescent intensity ratio from 665 nm emission to the intensity from the 590 nm emission against cAMP concentrations. The potency and activity of a compound to inhibit cAMP production was then determined by fitting to a 4-parametric logistic equation from a plot of cAMP level versus compound concentrations.

Chain of human FPR1 (P21462 whole entry): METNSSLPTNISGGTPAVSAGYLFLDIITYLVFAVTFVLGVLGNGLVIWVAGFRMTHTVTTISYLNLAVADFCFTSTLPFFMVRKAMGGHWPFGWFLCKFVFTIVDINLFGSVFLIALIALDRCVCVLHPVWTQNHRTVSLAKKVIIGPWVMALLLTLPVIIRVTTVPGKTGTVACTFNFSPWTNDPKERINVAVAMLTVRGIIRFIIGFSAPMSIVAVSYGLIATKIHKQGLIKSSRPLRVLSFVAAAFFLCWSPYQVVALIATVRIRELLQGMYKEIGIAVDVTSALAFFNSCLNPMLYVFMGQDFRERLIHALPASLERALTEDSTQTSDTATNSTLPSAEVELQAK
Chain of human FPR2 (P25090 whole entry): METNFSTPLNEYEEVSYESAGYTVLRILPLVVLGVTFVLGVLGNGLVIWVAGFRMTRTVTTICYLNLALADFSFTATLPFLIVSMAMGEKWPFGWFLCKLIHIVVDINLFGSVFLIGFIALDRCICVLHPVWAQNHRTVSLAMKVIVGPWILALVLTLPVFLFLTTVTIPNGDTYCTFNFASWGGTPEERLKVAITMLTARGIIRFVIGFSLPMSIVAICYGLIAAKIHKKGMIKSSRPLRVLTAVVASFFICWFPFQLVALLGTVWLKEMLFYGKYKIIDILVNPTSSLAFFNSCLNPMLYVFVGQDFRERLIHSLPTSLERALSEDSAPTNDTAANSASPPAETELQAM

EC50 [1] | EC50 [2] | Compound
0.13 nM | 25 nM | CS(=O)(=O)Nc1ccccc1-c1ccc(N2CCC[C@@H](NC(=O)Nc3ccc(Cl)cc3F)C2=O)cc1 [Example 188]
0.76 nM | 220 nM | COc1ccc(NC(=O)N[C@@H]2CCCN(c3ccc(-c4ccccc4NS(C)(=O)=O)cc3)C2=O)c(F)c1 [Example 197]
0.28 nM | 140 nM | COc1ccc(NC(=O)N[C@@H]2CCCN(c3ccc(-c4ccccc4NS(C)(=O)=O)cc3)C2=O)cc1 [Example 199]
0.35 nM | 27 nM | CS(=O)(=O)Nc1ccccc1-c1ccc(N2C[C@H](O)C[C@@H](NC(=O)Nc3ccc(Cl)cc3)C2=O)cc1 [Example 211]
0.63 nM | 120 nM | CS(=O)(=O)Nc1ccccc1-c1ccc(N2CCC[C@@H](NC(=O)Nc3ccc(C(F)(F)F)cc3F)C2=O)cc1 [Example 212]
0.75 nM | 110 nM | CS(=O)(=O)Nc1ccccc1-c1ccc(N2C[C@H](O)C[C@@H](NC(=O)Nc3ccc(C(F)(F)F)cc3)C2=O)cc1 [Example 213]
2.24 nM | 160 nM | CS(=O)(=O)Nc1ccccc1-c1ccc(N2C[C@H](O)C[C@H](NC(=O)Nc3ncc(Cl)cc3F)C2=O)cc1 [Example 214]
2 nM | 260 nM | CS(=O)(=O)Nc1ccccc1-c1ccc(N2C[C@H](O)C[C@@H](NC(=O)Nc3ccc(Cl)cn3)C2=O)cc1 [Example 215]
17 nM | 3300 nM | COc1cc(-c2ccccc2NS(C)(=O)=O)ccc1N1CCC[C@@H](NC(=O)Nc2ncc(C(F)(F)F)cc2F)C1=O [Example 255]
17 nM | 1400 nM | COc1cc(-c2ccccc2NS(C)(=O)=O)ccc1N1CCC[C@@H](NC(=O)Nc2ccc(C(F)(F)F)cn2)C1=O [Example 256]
17 nM | 3500 nM | CS(=O)(=O)Nc1ccccc1-c1ccc(N2CCC[C@@H](NC(=O)Nc3ccc(OC(F)F)nc3)C2=O)cc1 [Example 257]
20 nM | > 10000 nM | Cc1cnc(NC(=O)N[C@@H]2CCCN(c3ccc(-c4ccccc4NS(C)(=O)=O)cc3F)C2=O)cn1 [Example 258]
22 nM | 2000 nM | COc1cnc(NC(=O)N[C@@H]2CCCN(c3ccc(-c4ccccc4NS(C)(=O)=O)c(F)c3)C2=O)c(F)c1 [Example 259]
0.59 nM | 210 nM | CS(=O)(=O)Nc1ccccc1-c1cc(F)c(N2CCC[C@@H](NC(=O)Nc3ccc(Cl)cc3)C2=O)c(F)c1 [Example 260, (R)—N-(4′-(3-(3-(4-chlorophenyl)ureido)-2-oxopiperidin-1-yl)-3′,5′-difluoro-[1,1′-biphenyl]-2-yl)methanesulfonamide]
8.5 nM | 680 nM | NCc1cccc(-c2ccc(N3CCC[C@@H](NC(=O)Nc4ccc(Cl)cc4)C3=O)cc2)c1F [Example 276, (R)-1-(1-(3′-(Aminomethyl)-2′-fluoro-[1,1′-biphenyl]-4-yl)-2-oxopiperidin-3-yl)-3-(4-chlorophenyl)urea]
0.17 nM | 8.4 nM | CS(=O)(=O)Nc1ccccc1-c1ccc(N2C[C@H](O)C[C@@H](NC(=O)Nc3ccc(Cl)cc3F)C2=O)cc1 [Example 277, N-(4′-((3R,5R)-3-(3-(4-chloro-2-fluorophenyl)ureido)-5-hydroxy-2-oxopiperidin-1-yl)-[1,1′-biphenyl]-2-yl)methanesulfonamide]
5.5 nM | 130 nM | CS(=O)(=O)Nc1ccccc1-c1ccc(N2CCC[C@@H](NC(=O)Nc3ccc(Cl)cc3F)C2=O)c(Cl)c1 [Example 299, 1-[(3R)-1-{3-chloro-2′-methanesulfonamido-[1,1′-biphenyl]-4-yl}-2-oxopiperidin-3-yl]-3-(4-chloro-2-fluorophenyl)urea]
